From US20200085789A1, “USE OF A PROTEASOME INHIBITOR FOR THE TREATMENT OF CENTRAL NERVOUS SYSTEM (CNS) CANCERS” (Celgene International II Sàrl, priority 2017, published 2020)

How the values were obtained:
[1] = test system: proteasome (CT-L, T-L and C-L activity); assay: Blood proteasome inhibition (CT-L, T-L, C-L activity in packed whole blood and PBMC lysates); type: in vivo, human; settings: for % C-L inhibition / % CT-L inhibition / % T-L inhibition: PWB, post-Marizomib infusion (peak effect)
Text: The drugs were infused on 28-Day Cycles.
Change in proteasome activities in packed whole blood (PWB) lysates and peripheral blood mononuclear cell (PBMC) lysates, comparing pre-drug and post drug levels on Days 1, 8, and 15 of Cycle 1; Days 1 and 15 of each Cycle thereafter; and at the End-of Treatment Visit.
The laboratory correlates include assessment of the percentage inhibition of proteasome function (evaluated by measurement of CT-L, T-L and C-L activity in blood isolates such as whole blood and PBMC lysates.
PD analysis will include change in proteasome activities (whole blood lysates and PBMC lysates) by comparing pre-drug and post drug levels on Days 1, 8, and 15 (i.e., for each dose) of Cycle 1 and Days 1 and 15 (i.e., for the first and last doses) of each cycle thereafter.

[2] = test system: human glioblastoma (GBM) cell lines; settings: either of two GBM lines; cited from earlier work
[3] = test system: WHO Grade IV malignant glioma; assay: Tumor response by RANO criteria, MRZ ± BEV in recurrent grade IV malignant glioma patients; type: in vivo, human; settings: for Best Response CR (0), patients / Best Response PD (19), patients / Best Response PR (1), patients / Best Response SD (8), patients: Monotherapy ITT; for SPD: Monotherapy
Procedure: Tumor response was measured every other cycle by RANO criteria.
The drugs were infused on 28-Day Cycles. Tumor response is assessed every other cycle by RANO criteria.
Assessment will include MRI scans at the end of every even numbered cycle (±7 days) using RANO 2010 criteria for assessment.

[4] = Phase 2 monotherapy, of 30 patients

With `C[C@@]12OC(=O)[C@]1([C@@H](O)[C@@H]1C=CCCC1)NC(=O)[C@@H]2CCCl` [MRZ, marizomib] the “% C-L inhibition” value ([1]; 0.7 mg/m^2) was 50.4 ± 9.1 (3) %, the “% CT-L inhibition” value ([1]; 0.7 mg/m^2) was 100 ± 0 (3) % and the “% T-L inhibition” value ([1]; 0.7 mg/m^2) was 77.3 ± 10.5 (3) %. For the same compound, the “% C-L inhibition” value ([1]; 0.8 mg/m^2) was 51.9 ± 8.3 (3) %, the “% CT-L inhibition” value ([1]; 0.8 mg/m^2) was 100 ± 0 (3) % and the “% T-L inhibition” value ([1]; 0.8 mg/m^2) was 69.3 ± 7.2 (3) %. The “Proteasome inhibition on chymotrypsin-like (CT-L) domains” value ([1]; cohorts 1 and 2) was “maximal”, the “trypsin-like (T-L) and caspase-like (C-L) activity” value ([1]; cohorts 1 vs 2) was “Dose-dependent inhibition” and the “decrease of matrix invasion” value [2] was “approximately 90%”. The “Best Response CR (0), patients” value ([3]; Methylated N = 7) was 0, the “Best Response PD (19), patients” value ([3]; Methylated N = 7) was 4 and the “Best Response PR (1), patients” value ([3]; Methylated N = 7) was 0. For the same compound, the “Best Response SD (8), patients” value ([3]; Methylated N = 7) was 3, the “Best Response CR (0), patients” value ([3]; Unknown N = 5) was 0 and the “Best Response PD (19), patients” value ([3]; Unknown N = 5) was 3. The “Best Response PR (1), patients” value ([3]; Unknown N = 5) was 0, the “Best Response SD (8), patients” value ([3]; Unknown N = 5) was 1 and the “Best Response CR (0), patients” value ([3]; Unmethylated N = 18) was 0. The “Best Response PD (19), patients” value ([3]; Unmethylated N = 18) was 12, the “Best Response PR (1), patients” value ([3]; Unmethylated N = 18) was 1 and the “Best Response SD (8), patients” value ([3]; Unmethylated N = 18) was 4. The SPD ([3]; Pt 0511, Screening SPD 703.47) was 231.3, the SPD ([3]; Pt 0515, Screening SPD 199.6) was 259.5 and the SPD ([3]; Pt 0521, Screening SPD 836.44) was 832.82. For the same compound, the overall response rate ([3]; Phase 2 monotherapy 0.8 mg/m^2, 30 patients) was 3%, the “partial response, patients” value [3, 4] was 1 and the “progressive disease, patients” value [3, 4] was 19. For the same compound, the “disease course in most patients” value ([3]; marizomib alone) was “rapid progression”.
